Molecules are shown by their SMILES.

Emission maximum data for 47 molecules are collected here from the Deep4Chem optical property database.

The data set is described as follows: solvent given as SMILES.

Take `CCCCC(CC)CN1C(=O)c2cccc3c(C#Cc4ccc(N(c5ccccc5)c5ccccc5)cc4)ccc(c23)C1=O` (centres undefined): the emission maximum reads like this: (in C1CCCCC1) 462 nm; (in C1CCOC1) 621 nm; (in CC#N) 547 nm; (in Cc1ccccc1) 512 nm; (in ClC(Cl)Cl) 582 nm.

For the molecule `O=C1c2ccccc2S(=O)(=O)c2ccc(-n3c4ccccc4c4ccccc43)cc21`, the emission maximum reads like this: (in C1CCOC1) 576 nm; (in CCCCCC) 485 nm; (in Cc1ccccc1) 535.5 nm; (in ClC(Cl)Cl) 595.5 nm; (in ClCCl) 609.5 nm.

Molecule `[O-][n+]1c(-c2ccc(Br)cc2)cc(N2CCOCC2)nc1/C=C/c1ccccc1` registered an emission maximum (in ClCCl) of 548 nm.

For `OCCSc1cccc2[n+]1[B-](F)(F)n1c(c3cccc4cccc1c43)=N2`, the emission maximum (in C1CCOC1) worked out at 505 nm; the emission maximum (in CC#N) is 502 nm; the emission maximum (in CCCCCC) is 497 nm; the emission maximum (in Cc1ccccc1) is 505 nm; the emission maximum (in ClCCl) came to 501 nm.

As for `c1ccc(-c2nc(-c3ccc(N4c5ccccc5C(c5ccccc5)(c5ccccc5)c5ccccc54)cc3)cc(-c3ccc(N4c5ccccc5C(c5ccccc5)(c5ccccc5)c5ccccc54)cc3)n2)cc1`, the emission maximum is, setting by setting: (in Cc1ccccc1) 456 nm; (in O=P(c1ccccc1)(c1ccccc1)c1ccc2oc3ccc(P(=O)(c4ccccc4)c4ccccc4)cc3c2c1) 462 nm.

For the molecule `COc1ccc(/C=C/C2=NC(=C\c3ccncc3)/C(=O)N2C)cc1`, the emission maximum reads like this: (in C1COCCO1) 564 nm; (in CC#N) 574 nm; (in CCO) 570 nm; (in CCOC(C)=O) 566 nm; (in O) 577 nm.

As to `N#CC(C#N)=C(c1ccc(N(c2ccccc2)c2ccccc2)cc1)c1ccc(N(c2ccccc2)c2ccccc2)cc1`, the emission maximum runs as follows: (in C1CCCCC1) 413.3 nm; (in CC(C)=O) 505.58 nm; (in CN(C)C=O) 515.24 nm; (in Cc1ccccc1) 439.48 nm; (in ClC(Cl)Cl) 491.2 nm.

Consider `CC(=O)n1cc(/C=C/c2ccc([N+](=O)[O-])cc2)c2ccccc21`, for which the emission maximum (in CC#N) was found to be 428 nm, the emission maximum (in CCCCCCC) is 408 nm, the emission maximum (in CO) is on record as 424 nm and the emission maximum (in O) is recorded as 537 nm.

`CCCCn1c(-c2ccc(-c3nnc(-c4cccs4)o3)cc2)nc2c3ccccc3c3ccccc3c21`: under “in ClCCl”, the emission maximum is given as 448 nm.

The molecule `O=c1c2cccc3cccc(c32)c2nc3cccc4cccc(c43)n12` returned an emission maximum (in ClCCl) of 682 nm.

`CCCCCCCCCn1c(-c2cc(-c3nc4ccc(C)cc4n3CCCCCCCCC)cc(-c3nc4ccc(C)cc4n3CCCCCCCCC)c2)nc2ccc(C)cc21`: under “in C1CCOC1”, the emission maximum is given as 371 nm.

On to `Cc1ccc2nc3c(=O)[nH]c(=O)[nH]c3nc2c1`, for which the emission maximum (in CC#N) was 426 nm and the emission maximum (in ClCCCl) was 425 nm.

In the case of `CCC1=C(C)C(=O)n2c1cc1c(CCC(=O)O)c(C)c(C)n1c2=O`, the emission maximum is, setting by setting: (in CO) 540 nm; (in CS(C)=O) 510 nm; (in ClC(Cl)Cl) 500 nm; (in c1ccccc1) 470 nm.

Molecule `CCCCNC(=O)c1nc2c(N(C)C)nc(N(C)C)nc2n1Cc1ccccc1` yielded an emission maximum (in C1COCCO1) of 392 nm, an emission maximum (in CC#N) of 405 nm, an emission maximum (in CO) of 424 nm and an emission maximum (in ClCCl) of 402 nm.

In the case of `C(#Cc1cc(C#Cc2cccs2)c(C#Cc2cccs2)c(C#Cc2cccs2)c1C#Cc1cccs1)c1cccs1`, for the setting “in ClCCl”, the emission maximum is on record as 425 nm.

`O=C(c1ccc(N2c3ccccc3Sc3ccccc32)cc1)c1ccc2sc3ccccc3c2c1`: the emission maximum runs as follows: (in C1CCOC1) 604 nm; (in c1ccc2c(c1)c1ccccc1n2-c1ccc(-c2ccc(-n3c4ccccc4c4ccccc43)cc2)cc1) 524 nm.

`c1ccc2c(c1)[nH]c1cccnc12`: the emission maximum is, setting by setting: (in C1CCCCC1) 341 nm; (in C1CCOC1) 352 nm; (in C1COCCO1) 367 nm; (in CCO) 385 nm; (in CN(C)C=O) 371 nm; (in Cc1ccccc1) 350 nm. Besides, the emission maximum was determined as 369 nm (in ClC(Cl)Cl) and 364 nm (in Clc1ccccc1).

`CCCCCCn1c2cc(/C=C(\C#N)c3ccccc3)ccc2c2ccc(/C=C(\C#N)c3ccccc3)cc21` showed an emission maximum (in ClC(Cl)Cl) of 469.48 nm.

For the molecule `Cc1ccc(-c2oc3cccc4c5c(-c6ccc(C)cc6)/c(=N/S(=O)(=O)C(F)(F)F)oc6cccc(c2c34)c65)cc1`, where the note is “in ClC(Cl)Cl”, the emission maximum was determined as 577 nm.

Turning to `CC1(C)CCc2c(c3ccccc3c3nc4ccccc4nc23)O1`, the emission maximum is recorded as 459.98 nm (in C1CCCCC1); 483.09 nm (in C1CCOC1); 501 nm (in CN(C)C=O); 510.99 nm (in CO); 490.92 nm (in ClC(Cl)Cl); 471.03 nm (in c1ccccc1).

In turn, `O=S1(=O)c2ccc(-c3ccc4c(c3)c3ccccc3n4-c3ccccc3)cc2C2(c3cc(-c4ccc5c(c4)c4ccccc4n5-c4ccccc4)ccc31)c1cc(-c3ccc4c(c3)c3ccccc3n4-c3ccccc3)ccc1S(=O)(=O)c1ccc(-c3ccc4c(c3)c3ccccc3n4-c3ccccc3)cc12` returned an emission maximum (in CC1CCCO1) of 413 nm.

Regarding `CC(C)(C)c1ccc(N(c2ccc(C(C)(C)C)cc2)c2ccc(S(=O)(=O)c3ccc(N(c4ccc(C(C)(C)C)cc4)c4ccc(C(C)(C)C)cc4)cc3)cc2)cc1`, the emission maximum is 419 nm (in Cc1ccccc1) and 430 nm (in O=P(c1ccccc1)(c1ccccc1)c1ccccc1Oc1ccccc1P(=O)(c1ccccc1)c1ccccc1).

As for `C(S/C=C/c1ccc(-c2ccc(/C=C/SC=C3CCCCCC3)cc2)cc1)=C1CCCCCC1`, the emission maximum (in ClCCl) was found to be 434 nm.

Under “in ClC(Cl)Cl”, `N#Cc1nc(N(Cc2ccccc2I)Cc2ccccc2I)c(C#N)nc1N(Cc1ccccc1I)Cc1ccccc1I` yielded an emission maximum of 567 nm.

In turn, `COc1ccc(-c2nc(-c3ccc(OC)cc3)n3ccccc23)cc1` displayed an emission maximum (in ClC(Cl)Cl) of 479 nm.

`Cc1ccc(C)c(C)c1`: the emission maximum (in C1CCCCC1) stood at 295.77 nm.

For `N#CC(C#N)=Cc1ccc(-c2ccc(N(c3ccccc3)c3ccccc3)cc2)o1`, the emission maximum (in ClC(Cl)Cl) stood at 618 nm.

In turn, `c1cc2c3c(c1)ccc1[n+]3[B-]3(Oc4cccc5ccc6[n+](c45)[B-](O2)(O3)n2c-6cc3c4ccccc4c4ccccc4c32)n2c-1cc1c3ccccc3c3ccccc3c12` gave an emission maximum (in ClCCl) of 568 nm.

`c1ccc2cc3c(cc2c1)oc1c2oc4cc5ccccc5cc4c2c2ccccc2c31` came in with an emission maximum (in C1CCOC1) of 399 nm.

On to `CCCCCCCCCCOc1ccc2cc(C3=C4C(=O)N(CC(OCC)OCC)C(c5cc6ccc(OCCCCCCCCCC)cc6o5)=C4C(=O)N3CC(OCC)OCC)oc2c1`, for which, under “in ClC(Cl)Cl”, the emission maximum is 613 nm.

The molecule `c1ccc(-c2nc(-c3nc(-c4ccccc4)c(-c4ccccc4)o3)oc2-c2ccccc2)cc1` had an emission maximum (in C1COCCO1) of 411 nm.

For the setting “in ClCCl”, `CC(C)[Si](C#Cc1c2nc3ccccc3nc2c(C#C[Si](C(C)C)(C(C)C)C(C)C)c2nc3c4ccccc4c(=O)c4ccccc4c3nc12)(C(C)C)C(C)C` registered an emission maximum of 627 nm.

`c1ccc(-c2nc(-c3c[nH]c4ccccc34)n3ccccc23)cc1`: the emission maximum was 482 nm (in C1CCCCC1); 506 nm (in CC#N); 500 nm (in CO); 506 nm (in ClCCl); 507 nm (in O).

For the setting “in CC#N”, `Cc1cc2nc3c(=O)[nH]c(=O)nc-3n(C)c2cc1C` yielded an emission maximum of 533 nm.

Regarding `Cc1cc(/N=C/c2cc(S(=O)(=O)[O][Na])ccc2O)c(/N=C/c2cc(S(=O)(=O)[O][Na])ccc2O)cc1C`, under “in O”, the emission maximum was found to be 426 nm.

Molecule `CCCCn1c2ccccc2c2ccc3c4cc(-c5ccc6ccccc6c5)ccc4n(CCCC)c3c21` yielded an emission maximum (in ClC(Cl)Cl) of 410 nm.

`CC(C)[Si](C#Cc1c2cc3ccccc3cc2c(C#Cc2ccc(Br)cc2)c2cc3ccccc3cc12)(C(C)C)C(C)C`: the emission maximum (in ClCCl) is given as 663 nm.

The molecule `CCN(CC)c1ccc([N+]2=Cc3ccc4c5c(ccc4c3O[B-]2(c2c(F)c(F)c(F)c(F)c2F)c2c(F)c(F)c(F)c(F)c2F)C=[N+](c2ccc(N(CC)CC)cc2)[B-](c2c(F)c(F)c(F)c(F)c2F)(c2c(F)c(F)c(F)c(F)c2F)O5)cc1` returned an emission maximum (in C1CCOC1) of 714 nm, an emission maximum (in Cc1ccccc1) of 644 nm and an emission maximum (in ClCCl) of 683 nm.

Regarding `c1ccc(-c2c3ccccc3c(-c3cncnc3)c3ccccc23)cc1`, the emission maximum by setting is: (in CCO) 441 nm; (in ClCCl) 414 nm.

Regarding `CN(C)c1ccc(C2=Nc3scc(-c4ccc(N(C)C)cc4)[n+]3[B-](F)(F)O2)cc1`, the emission maximum (in C1CCOC1) was 616 nm, the emission maximum (in Cc1ccccc1) stood at 518 nm and the emission maximum (in ClCCl) was 590 nm.

In turn, `COc1ccccc1-c1nc2c3cccnc3c3ncccc3c2n1-c1ccccc1` came in with an emission maximum (in Cc1ccccc1) of 396 nm.

As to `CCCCCCCCCCCCCCCCCCOC(=O)/C=C/C1=CC2=C(c3c(C)cc(C)cc3C)c3cc(/C=C/C(=O)OCCCCCCCCCCCCCCCCCC)cn3[B-](F)(F)[N+]2=C1`, the emission maximum (in ClCCl) is listed as 606 nm.

The molecule `O=C1c2ccccc2-c2c(-c3ccc([N+](=O)[O-])cc3)c(-c3ccc([N+](=O)[O-])cc3)c(-c3ccccc3)c3cccc1c23` came in with an emission maximum (in CC#N) of 496 nm and an emission maximum (in CO) of 509 nm.

Regarding `COc1cccc(-c2nc3sc4ccccc4c3s2)c1`, the emission maximum (in CS(C)=O) amounted to 412 nm.

In turn, `CCCCCCCCn1c2ccc(/C=C/c3ccc(N(c4ccccc4)c4ccccc4)cc3)cc2c2cc3c(cc21)c1cc(/C=C/c2ccc(N(c4ccccc4)c4ccccc4)cc2)ccc1n3CCCCCCCC` returned an emission maximum (in Cc1ccccc1) of 453 nm.

`COc1cc(N(CC(=O)[O-])CC(=O)[O-])c2ncccc2c1` had an emission maximum (in O) of 487 nm.

For the molecule `N#CC(C#N)=Cc1ccc(-c2ccc(-c3nc4ccccc4s3)c(O)c2)s1`, the emission maximum is 499 nm (in CCO), 503 nm (in ClCCl) and 609 nm (in O).
